According to article doi:10.1101/2021.04.08.439011v1 (biorxiv, 2021):

What was measured:
Conditions in all cases: 1 µM; binder
[1] = target: ALK(C1156Y) (Homo sapiens, UniProt Q9UM73, C1156Y)
[2] = target: ALK(L1196M) (Homo sapiens, UniProt Q9UM73, L1196M)
[3] = target: DRAK1 (Homo sapiens, UniProt Q9UEE5)
[4] = target: EGFR(L858R,T790M) (Homo sapiens, UniProt P00533, L858R/T790M)
[5] = target: EPHB3 (Homo sapiens, UniProt P54753)
[6] = target: ERK3 (Homo sapiens, UniProt Q16659)
[7] = target: ERK4 (Homo sapiens, UniProt P31152)
ERK4, sequence (P31152 whole entry): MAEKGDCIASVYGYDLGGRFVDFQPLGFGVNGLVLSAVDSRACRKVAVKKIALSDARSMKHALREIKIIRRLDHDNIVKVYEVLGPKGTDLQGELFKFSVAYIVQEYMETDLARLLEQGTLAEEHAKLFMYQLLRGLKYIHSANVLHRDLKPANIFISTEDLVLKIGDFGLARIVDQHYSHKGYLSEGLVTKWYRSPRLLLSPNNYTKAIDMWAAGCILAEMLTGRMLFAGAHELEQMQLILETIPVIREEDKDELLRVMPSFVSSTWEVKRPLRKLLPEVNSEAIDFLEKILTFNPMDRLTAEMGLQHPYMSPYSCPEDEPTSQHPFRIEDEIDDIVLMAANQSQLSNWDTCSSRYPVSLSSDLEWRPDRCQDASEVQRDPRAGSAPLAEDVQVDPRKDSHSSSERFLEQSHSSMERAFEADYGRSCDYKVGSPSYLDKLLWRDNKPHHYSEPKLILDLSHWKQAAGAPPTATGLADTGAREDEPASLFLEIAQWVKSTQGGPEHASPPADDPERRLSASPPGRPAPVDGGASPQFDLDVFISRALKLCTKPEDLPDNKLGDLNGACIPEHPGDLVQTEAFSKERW

[8] = target: FLT3(D835H) (Homo sapiens, UniProt P36888, D835H)
[9] = target: FYN (Homo sapiens, UniProt P06241)
[10] = target: JNK1 (Homo sapiens, UniProt P45983)
[11] = target: JNK3 (Homo sapiens, UniProt P53779)
[12] = target: KIT(V559D,T670I) (Homo sapiens, UniProt P10721, T670I/V559D)
[13] = target: LATS2 (Homo sapiens, UniProt Q9NRM7)
[14] = target: LOK (Homo sapiens, UniProt O94804)
[15] = target: MELK (Homo sapiens, UniProt Q14680)
[16] = target: MYLK (Homo sapiens, UniProt Q15746)
[17] = target: NDR2 (Homo sapiens, UniProt Q9Y2H1)
NDR2, sequence (Q9Y2H1 whole entry): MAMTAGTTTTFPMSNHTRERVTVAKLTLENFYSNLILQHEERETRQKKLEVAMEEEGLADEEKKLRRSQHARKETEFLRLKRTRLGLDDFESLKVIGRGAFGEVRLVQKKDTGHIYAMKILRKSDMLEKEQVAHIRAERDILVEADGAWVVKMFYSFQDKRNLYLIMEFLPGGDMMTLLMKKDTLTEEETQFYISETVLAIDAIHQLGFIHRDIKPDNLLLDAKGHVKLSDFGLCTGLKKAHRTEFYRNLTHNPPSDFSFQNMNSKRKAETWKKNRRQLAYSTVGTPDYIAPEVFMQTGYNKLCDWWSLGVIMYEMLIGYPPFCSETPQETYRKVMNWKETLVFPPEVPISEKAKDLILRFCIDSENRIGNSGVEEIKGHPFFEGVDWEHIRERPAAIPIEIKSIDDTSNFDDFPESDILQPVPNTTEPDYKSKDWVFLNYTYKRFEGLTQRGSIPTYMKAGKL

[18] = target: NEK1 (Homo sapiens, UniProt Q96PY6)
[19] = target: NEK5 (Homo sapiens, UniProt Q6P3R8)
[20] = target: PIP4K2B (Homo sapiens, UniProt P78356)
[21] = target: RIPK2 (Homo sapiens, UniProt O43353)
[22] = target: SBK1 (Homo sapiens, UniProt Q52WX2)
[23] = target: SGK (Homo sapiens, UniProt O00141)
SGK, sequence (O00141 whole entry): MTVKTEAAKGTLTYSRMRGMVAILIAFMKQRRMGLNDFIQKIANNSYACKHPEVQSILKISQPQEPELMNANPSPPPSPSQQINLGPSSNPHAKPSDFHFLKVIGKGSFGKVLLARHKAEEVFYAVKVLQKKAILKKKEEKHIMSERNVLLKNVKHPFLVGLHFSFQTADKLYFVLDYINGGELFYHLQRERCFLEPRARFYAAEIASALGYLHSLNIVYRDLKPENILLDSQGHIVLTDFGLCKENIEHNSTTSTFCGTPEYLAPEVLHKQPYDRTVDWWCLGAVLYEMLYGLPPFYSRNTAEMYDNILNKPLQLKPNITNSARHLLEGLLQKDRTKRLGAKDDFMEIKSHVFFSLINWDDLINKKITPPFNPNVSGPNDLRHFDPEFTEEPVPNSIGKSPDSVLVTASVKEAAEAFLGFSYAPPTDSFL

[24] = target: SIK1 (Homo sapiens, UniProt P57059)
[25] = target: SRPK1 (Homo sapiens, UniProt Q96SB4)
[26] = target: SYK (Homo sapiens, UniProt P43405)
[27] = target: TAOK3 (Homo sapiens, UniProt Q9H2K8)
[28] = target: TBK1 (Homo sapiens, UniProt Q9UHD2)
[29] = target: TNNI3K (Homo sapiens, UniProt Q59H18)
TNNI3K, sequence (Q59H18 whole entry): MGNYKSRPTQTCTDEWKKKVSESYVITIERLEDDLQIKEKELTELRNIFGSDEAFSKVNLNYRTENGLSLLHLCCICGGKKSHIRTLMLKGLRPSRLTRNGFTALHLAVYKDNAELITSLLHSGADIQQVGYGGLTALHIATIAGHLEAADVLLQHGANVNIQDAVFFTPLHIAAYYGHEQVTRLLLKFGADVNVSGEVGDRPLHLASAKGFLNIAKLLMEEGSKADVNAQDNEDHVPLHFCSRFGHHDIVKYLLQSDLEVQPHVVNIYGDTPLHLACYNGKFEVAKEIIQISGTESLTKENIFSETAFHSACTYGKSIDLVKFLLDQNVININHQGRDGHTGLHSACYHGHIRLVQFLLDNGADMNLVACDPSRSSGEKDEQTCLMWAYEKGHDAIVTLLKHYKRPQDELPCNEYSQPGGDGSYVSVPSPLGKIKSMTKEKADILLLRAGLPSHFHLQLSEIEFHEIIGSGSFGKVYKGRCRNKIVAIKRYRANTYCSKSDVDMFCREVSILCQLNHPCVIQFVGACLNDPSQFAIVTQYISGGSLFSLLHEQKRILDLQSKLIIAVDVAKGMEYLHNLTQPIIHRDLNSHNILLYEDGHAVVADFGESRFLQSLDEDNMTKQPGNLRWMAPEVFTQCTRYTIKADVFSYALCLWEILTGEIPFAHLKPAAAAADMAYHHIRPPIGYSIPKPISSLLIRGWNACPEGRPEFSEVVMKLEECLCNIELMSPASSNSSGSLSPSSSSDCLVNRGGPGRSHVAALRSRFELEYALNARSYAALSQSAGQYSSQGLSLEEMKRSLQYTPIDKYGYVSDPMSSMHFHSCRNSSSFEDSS

[30] = target: p38-gamma (Homo sapiens, UniProt P53778)
p38-gamma, sequence (P53778 whole entry): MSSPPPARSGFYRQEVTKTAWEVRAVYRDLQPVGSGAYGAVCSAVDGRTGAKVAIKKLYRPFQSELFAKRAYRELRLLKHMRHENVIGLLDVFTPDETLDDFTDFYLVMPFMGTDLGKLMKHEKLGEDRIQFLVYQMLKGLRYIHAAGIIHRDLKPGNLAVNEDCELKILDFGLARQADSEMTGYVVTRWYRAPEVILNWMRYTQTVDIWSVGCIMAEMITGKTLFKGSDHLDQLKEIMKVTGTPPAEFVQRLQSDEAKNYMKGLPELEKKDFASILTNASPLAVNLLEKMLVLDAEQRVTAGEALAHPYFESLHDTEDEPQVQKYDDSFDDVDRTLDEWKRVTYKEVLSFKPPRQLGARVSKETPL

ALK(L1196M), sequence (Q9UM73 whole entry L1196M): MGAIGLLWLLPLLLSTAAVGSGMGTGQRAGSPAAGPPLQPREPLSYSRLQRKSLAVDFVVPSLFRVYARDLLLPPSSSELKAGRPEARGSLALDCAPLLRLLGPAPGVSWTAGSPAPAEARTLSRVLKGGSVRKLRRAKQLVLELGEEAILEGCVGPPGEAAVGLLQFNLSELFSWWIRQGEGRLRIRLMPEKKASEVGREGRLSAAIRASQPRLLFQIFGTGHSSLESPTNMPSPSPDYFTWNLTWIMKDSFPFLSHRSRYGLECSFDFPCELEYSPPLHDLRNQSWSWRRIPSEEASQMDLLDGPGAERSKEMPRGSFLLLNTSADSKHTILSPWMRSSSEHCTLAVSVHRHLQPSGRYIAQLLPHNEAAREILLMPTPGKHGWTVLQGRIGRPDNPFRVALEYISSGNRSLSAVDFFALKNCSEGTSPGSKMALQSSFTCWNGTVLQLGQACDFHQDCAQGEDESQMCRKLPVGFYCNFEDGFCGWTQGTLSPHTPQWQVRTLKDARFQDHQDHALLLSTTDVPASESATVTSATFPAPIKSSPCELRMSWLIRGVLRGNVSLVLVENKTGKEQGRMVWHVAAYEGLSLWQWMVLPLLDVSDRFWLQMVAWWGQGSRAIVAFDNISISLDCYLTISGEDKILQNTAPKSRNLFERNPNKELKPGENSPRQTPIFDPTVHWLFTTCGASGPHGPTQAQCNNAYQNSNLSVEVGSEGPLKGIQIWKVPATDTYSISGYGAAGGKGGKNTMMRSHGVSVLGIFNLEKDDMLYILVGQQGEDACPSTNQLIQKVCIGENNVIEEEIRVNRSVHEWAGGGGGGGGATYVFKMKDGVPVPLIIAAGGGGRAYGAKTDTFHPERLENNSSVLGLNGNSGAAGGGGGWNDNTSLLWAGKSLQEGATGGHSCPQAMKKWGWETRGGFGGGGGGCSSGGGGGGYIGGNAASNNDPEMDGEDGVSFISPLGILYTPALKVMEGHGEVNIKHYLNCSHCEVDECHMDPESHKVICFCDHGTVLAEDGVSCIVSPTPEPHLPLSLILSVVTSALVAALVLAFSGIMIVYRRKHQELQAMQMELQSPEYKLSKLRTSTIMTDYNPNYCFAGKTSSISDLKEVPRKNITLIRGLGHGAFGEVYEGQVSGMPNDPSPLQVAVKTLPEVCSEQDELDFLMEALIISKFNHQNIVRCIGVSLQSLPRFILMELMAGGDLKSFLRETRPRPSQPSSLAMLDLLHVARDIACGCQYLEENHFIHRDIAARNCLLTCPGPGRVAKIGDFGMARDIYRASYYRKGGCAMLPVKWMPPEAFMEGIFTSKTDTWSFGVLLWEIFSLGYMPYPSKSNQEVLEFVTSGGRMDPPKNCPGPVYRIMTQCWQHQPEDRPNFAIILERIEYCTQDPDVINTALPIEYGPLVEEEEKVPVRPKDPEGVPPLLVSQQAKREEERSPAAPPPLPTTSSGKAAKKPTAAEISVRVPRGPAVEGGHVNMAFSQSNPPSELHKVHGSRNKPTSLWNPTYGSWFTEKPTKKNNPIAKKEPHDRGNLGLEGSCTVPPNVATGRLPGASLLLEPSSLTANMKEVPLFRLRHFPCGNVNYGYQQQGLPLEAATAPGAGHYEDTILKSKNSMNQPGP
ERK3, sequence (Q16659 whole entry): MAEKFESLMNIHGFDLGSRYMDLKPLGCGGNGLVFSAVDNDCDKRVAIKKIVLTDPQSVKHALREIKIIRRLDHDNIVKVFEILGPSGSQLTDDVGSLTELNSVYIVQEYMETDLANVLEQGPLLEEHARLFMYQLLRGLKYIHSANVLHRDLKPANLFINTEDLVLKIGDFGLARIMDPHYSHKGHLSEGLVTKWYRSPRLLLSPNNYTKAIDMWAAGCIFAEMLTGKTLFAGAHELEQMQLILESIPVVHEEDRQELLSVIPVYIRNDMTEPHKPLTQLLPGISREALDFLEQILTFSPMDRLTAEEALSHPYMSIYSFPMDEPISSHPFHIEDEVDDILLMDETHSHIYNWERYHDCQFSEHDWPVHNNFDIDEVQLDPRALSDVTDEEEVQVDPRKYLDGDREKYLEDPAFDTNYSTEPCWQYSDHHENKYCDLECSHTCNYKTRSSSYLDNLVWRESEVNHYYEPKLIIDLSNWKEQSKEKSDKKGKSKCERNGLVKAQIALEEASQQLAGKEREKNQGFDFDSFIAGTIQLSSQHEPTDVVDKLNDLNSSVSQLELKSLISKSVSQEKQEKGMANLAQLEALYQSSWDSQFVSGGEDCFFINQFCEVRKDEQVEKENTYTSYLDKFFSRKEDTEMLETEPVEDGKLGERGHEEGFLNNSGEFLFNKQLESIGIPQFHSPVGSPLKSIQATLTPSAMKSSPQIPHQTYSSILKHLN
ALK(C1156Y), sequence (Q9UM73 whole entry C1156Y): as the sequence (Q9UM73 whole entry L1196M) above, with C1156Y, M1196L counted along it

SMILES: CNc1ncc2cc(-c3ccc(-c4cccc(C)n4)cc3Cl)c(=O)n(C[C@H]3OC[C@H](N)CO3)c2n1 [compound 6, G-5555]
- Percent Control [1]: 100%
- Percent Control [2]: 100%
- Percent Control [3]: 100%
- Percent Control [4]: 100%
- Percent Control [5]: 100%
- Percent Control [6]: 100%
- Percent Control [7]: 100%
- Percent Control [8]: 99%
- Percent Control [9]: 87%
- Percent Control [10]: 41%
- Percent Control [11]: 87%
- Percent Control [12]: 100%
- Percent Control [13]: 8%
- Percent Control [14]: 2.1%
- Percent Control [15]: 47%
- Percent Control [16]: 85%
- Percent Control [17]: 100%
- Percent Control [18]: 100%
- Percent Control [19]: 100%
- Percent Control [20]: 87%
- Percent Control [21]: 65%
- Percent Control [22]: 100%
- Percent Control [23]: 100%
- Percent Control [24]: 0.6%
- Percent Control [25]: 98%
- Percent Control [26]: 100%
- Percent Control [27]: 100%
- Percent Control [28]: 68%
- Percent Control [29]: 98%
- Percent Control [30]: 100%
